These results are taken from patent US8716228B2, “GPR54 agonists or antagonists for treatment of diseases presenting behavioral abnormalities” (YEDA Research and Development Co. Ltd., priority 2009, dated 2014).

The test system of assay [1] is naive C57B1/6 mice. Kind of assay: PPI in naive C57B1/6 mice. The following applies: naive animals, GnRH receptor antagonist alone. In kind it is in vivo, mouse.
Protocol: Prepulse Inhibition (PPI). PPI testing was performed within startle chambers purchased from Med Associates Inc (Med Associates, St. Albans, Vt., USA). […] Briefly, during a period of acclimation, a 65-dB background noise was applied for 5-min, and continued throughout the test session. All sessions for testing of PPI consisted of startle trials (pulse alone, 40-ms, 120-dB), prepulse trials (prepulse 20-ms, 69, 73, 78, or 81 dB followed by a (100-ms delay) pulse), and no-stimulus trials. All sessions were presented in pseudo-random order. The average time between trials was 15 s (range 12-30 s). PPI was calculated as: % PPI=100−{[(startle response for prepulse+pulse)/(startle response for pulse-alone)]×100}. […] Data from no-stimulation trials are not included in the results because the values obtained were negligible relative to values from trials containing startle stimuli.
Neurotensin receptor antagonist SR142948 (TOCRIS COOKSON LTD) was used at 100 μg/kg 60 min before the PPI analysis.
GnRH receptor antagonist Cetrorelix Acetate (Cetrotide™, Anaspec Inc. Fremont, Calif.). Control mice were administered the same volume of PBS.
To examine whether Kp-10 can elevate PPI in naïve mice in a dose dependent manner, we analyzed PPI in C57B1/6 mice that were injected i.p with 100 μl of 1/10/100 μM Kp-10 (SEQ ID NO:3).
The next assay relates to C57B1/6 mice. The assay can be described thus: PPI in MK-801 pharmacological model of schizophrenia. Type of assay: in vivo, mouse. The following applies: acute MK-801 0.1 mg/kg i.p., PPI 15 min later, vs naive mice. The method, then:
(§1) Prepulse Inhibition (PPI). PPI testing was performed within startle chambers purchased from Med Associates Inc (Med Associates, St. Albans, Vt., USA). PPI was analyzed as described previously (Kipnis et al., 2004). Briefly, during a period of acclimation, a 65-dB background noise was applied for 5-min, and continued throughout the test session. All sessions for testing of PPI consisted of startle trials (pulse alone, 40-ms, 120-dB), prepulse trials (prepulse 20-ms, 69, 73, 78, or 81 dB followed by a (100-ms delay) pulse), and no-stimulus trials. All sessions were presented in pseudo-random order. The average time between trials was 15 s (range 12-30 s). PPI was calculated as: % PPI=100−{[(startle response for prepulse+pulse)/(startle response for pulse-alone)]×100}. In all the experiments, there were no significant differences between groups in trials of startle reactivity to pulse alone, and in no-stimulation trials. Data from no-stimulation trials are not included in the results because the values obtained were negligible relative to values from trials containing startle stimuli. Reduced PPI is associated with schizophrenia-related behavior. […]
To further establish the antipsychotic effect of Kp-10, we evaluated its ability to overcome psychotic symptoms induced by the psycho-mimetic agent, MK-801 (N-methyl-D-aspartate (NMDA) antagonist), which induces neurotransmitter imbalance. […]

In assay [2] the test system is naive C57B1/6 mice. The conditions noted are these: neurotensin receptor antagonist alone (Binder et al., 2001); cited from earlier work.
Assay [3] concerns poly I:C rat model for schizophrenia. The conditions noted are these: prophylactic treatment in peri-adolescence; cited from earlier work.
The subject of assay [4] is offspring of poly I:C treated dams. The assay can be described thus: PPI in offspring of poly I:C treated dams (mouse model for schizophrenia). In kind it is in vivo. The following applies: pregnant C57B1/6 mice 4 mg/kg poly I:C, vs saline. The method, then: (§2) Poly I:C administration. Rats or mice were bred, and the first day after copulation was defined as day 1 of pregnancy. On gestation day 15, pregnant animals were injected intravenously with 4.0 mg/kg poly I:C (Sigma-Aldrich, Israel) dissolved in saline, or an equivalent volume of saline as a control. Both rats and mice received the same protocol of poly I:C administration.
Prepulse Inhibition (PPI). PPI testing was performed within startle chambers purchased from Med Associates Inc (Med Associates, St. Albans, Vt., USA). PPI was analyzed as described previously (Kipnis et al., 2004). Briefly, during a period of acclimation, a 65-dB background noise was applied for 5-min, and continued throughout the test session. All sessions for testing of PPI consisted of startle trials (pulse alone, 40-ms, 120-dB), prepulse trials (prepulse 20-ms, 69, 73, 78, or 81 dB followed by a (100-ms delay) pulse), and no-stimulus trials. All sessions were presented in pseudo-random order. The average time between trials was 15 s (range 12-30 s). PPI was calculated as: % PPI=100−{[(startle response for prepulse+pulse)/(startle response for pulse-alone)]×100}. In all the experiments, there were no significant differences between groups in trials of startle reactivity to pulse alone, and in no-stimulation trials. Data from no-stimulation trials are not included in the results because the values obtained were negligible relative to values from trials containing startle stimuli. Reduced PPI is associated with schizophrenia-related behavior. The same protocol was used in mice and rats (FIG. 1A).
Kisspeptin treatment. Mice were injected i.p with 100 μl of 1/10/100 μM Kp-10 peptide (SEQ ID NO:3) (synthesized at the Weizmann Institute of Science, or Sigma-Aldrich, Israel) dissolved in PBS, 30 minutes before the PPI analysis.
The ability of a normal lymphocyte population to reverse abnormal PPI behavior in immune deficient mice, encouraged us to test whether immune cells derived from the offspring of poly I:C treated dams would reverse the abnormal behavior of SCID mice in the PPI test. […]

For another assay, the system named is BDNF. Kind of assay: qPCR of BDNF transcripts in hippocampus. Type of assay: in vivo, mouse. The following applies: mRNA, offspring of poly I:C treated dams treated at 8 weeks with Kp-10 or PBS. The method, then: RNA purification, cDNA synthesis, reverse transcription PCR, and real-time quantitative PCR analysis. For RNA expression analysis, cells from whole hippocampi were extracted with TRI Reagent (MRC, Cincinnati, Ohio), and total cellular RNA was purified from the lysates using the RNeasy kit (Qiagen, Hilden, Germany). RNA (1 μg) was converted to cDNA using SuperScript II (Promega, Madison, Wis.). The amplification cycle was 95° C. for 5 s, 60° C. for 20 s, and 72° C. for 15 s.
The following primers were used: […]
To understand what is the mechanism behind the prophylactic treatment of Kp-10 we examined the expression of total brain-derived neurotrophic factor (BDNF) and its exon transcripts 1-4 according to Zajac et al. (2010). […] Recently, association between a BDNF variant and childhood-onset mood disorder was established (Strauss et al., 2005). Therefore, we studied mRNA expression of a few BDNF transcripts in the hippocampus of offspring of PBS treated dams (n=5) compared to offspring of poly I:C treated dams, which were treated at 8 weeks with either Kp-10 (n=6) or PBS (n=6) (Table 3). […] Treatment with Kp-10 at 8 weeks of age induced an increase in the expression of BDNF1 transcript to the normal level (Table 3(ii)). […] In addition, no significant difference was found between the groups in the expression of BDNF transcripts 3 and 4 (Table 3(iv and v)). […] The involvement of BDNF in schizophrenia and its effect on PPI levels are still a debate. Our observations of changes in expression of selective forms of BDNF might explain this apparent dichotomy.
Background: Quantitative PCR measures a nucleic acid by following its amplification.

The test system of a further assay is lymphocytes. Kind of assay: Lymphocyte proliferation assay after MBP68-86 vaccination. In kind it is cell-based, Lewis rats. The conditions noted are these: offspring after prenatal poly I:C treatment.
The test system of assay [5] is Lewis rats. The assay can be described thus: Experimental autoimmune encephalomyelitis (EAE). In kind it is in vivo. The following applies: female offspring after prenatal poly I:C treatment, MBP68-86 immunization.
Assay [6] concerns Lewis rats. Kind of assay: PPI in offspring of poly I:C treated Lewis rats. Type of assay: in vivo. The following applies: pregnant Lewis rats 4 mg/kg poly I:C, vs progeny of saline-treated animals. The method, then:
as §2
as §1, with “trials.” for “trials. Data from no-stimulation trials are not included in the results because the values obtained were negligible relative to values from trials containing startle stimuli. Reduced PPI is associated with schizophrenia-related behavior.”

The next assay concerns KiSS-1. Kind of assay: qPCR of KiSS-1 mRNA in hippocampus. In kind it is in vivo, mouse. The conditions noted are these: adult poly I:C affected mice vs age-matched controls.

Structures can show the parent of a compound that is named as a salt. Square brackets hold non-standard residues; d marks the D form. Peptide text beside a SMILES is read from it. dPhe(4-Cl) = N[C@H](Cc1ccc(Cl)cc1)C(=O)O; d2Nal = N[C@H](Cc1ccc2ccccc2c1)C(=O)O; dCit = NC(=O)NCCC[C@@H](N)C(=O)O; d3Pal = N[C@H](Cc1cccnc1)C(=O)O

For the compound `CC(=O)N[C@H](Cc1ccc2ccccc2c1)C(=O)N[C@H](Cc1ccc(Cl)cc1)C(=O)N[C@H](Cc1cccnc1)C(=O)N[C@@H](CO)C(=O)N[C@@H](Cc1ccc(O)cc1)C(=O)N[C@H](CCCNC(N)=O)C(=O)N[C@@H](CC(C)C)C(=O)N[C@@H](CCCNC(=N)N)C(=O)N1CCC[C@H]1C(=O)N[C@H](C)C(N)=O` [Cetrotide™, Cetrorelix Acetate, reference compound] (Ac-[d2Nal][dPhe(4-Cl)][d3Pal]SY[dCit]LRP[dA]-NH2), the PPI entry in the assay with naive C57B1/6 mice [1] was “did not affect PPI”.

On to `C[C@]12N[C@H](Cc3ccccc31)c1ccccc12` [MK-801, [+]-5-methyl-10,11-dihydro-5H-dibenzo-[a,d]-cyclohepten-5,10-imine hydrogen maleate, reference compound], for which, in the assay on C57B1/6 mice, the PPI response entry was “significantly reduced PPI response”.

On to `COc1cccc(OC)c1-c1cc(C(=O)NC2(C(=O)O)C3CC4CC(C3)CC2C4)nn1-c1ccc(C(=O)N(C)CCCN(C)C)cc1C(C)C` (centres unmarked) [NTA], for which the PPI levels result with naive C57B1/6 mice [2] is given as “does not affect PPI levels”.

As to `Cc1nc2n(c(=O)c1CCN1CCC(c3noc4cc(F)ccc34)CC1)CCCC2` [Risperidone], the “onset of psychotic symptoms and abnormal brain development” value in assay [3] is “prevented the onset psychotic symptoms and abnormal brain development”.

For the compound “polyriboinosinic-polyribocytidylic acid [poly I:C]”, in assay [4], the “PPI in adult offspring” value is recorded as “reduced PPI”. For the same compound, in the assay on BDNF, the “Expression of BDNF1 transcript” value was found to be 1.2 ± 0.3, the “Expression of BDNF2 transcript” value is listed as 5.7 ± 0.1, the “Expression of BDNF3 transcript” value came out at 6.2 ± 0.9 and the “Expression of BDNF4 transcript” value was found to be 7.4 ± 1. Moreover, the “Expression of BDNF transcript (total BDNF)” value with BDNF is 1.7 ± 0.6. In addition, in the assay on lymphocytes (antigen Con-A), the “Lymphocyte proliferation (PI ± SD)” value was 126 ± 67. The “Lymphocyte proliferation (PI ± SD)” value in the assay on lymphocytes (antigen MBP68-86) came out at 1.0 ± 0.11. Moreover, in the assay on lymphocytes (antigen Ova), the “Lymphocyte proliferation (PI ± SD)” value stood at 1.2 ± 0.09. In the assay with Lewis rats [5], the “Duration of EAE (day ± SEM)” value was found to be 5.08 ± 0.3 days and the “Onset of EAE (day ± SEM)” value came out at 11.17 ± 0.2 days. In the assay with Lewis rats [6], the “PPI in adult offspring” value is “reduction in PPI”. Also, the “KiSS-1 mRNA levels in hippocampus” value with KiSS-1 is reported as “reduction in KiSS-1 mRNA levels”.
